{
  "source": "paper PMC12122562",
  "about": "“Phase 1 studies of the indenoisoquinolines LMP776 and LMP744 in patients with solid tumors and lymphomas” (Cancer Chemotherapy and Pharmacology, 2025)",
  "test": "Plasma pharmacokinetics of LMP744, non-compartmental",
  "type": "in vivo, human",
  "conditions": "for half-life / AUC(0-inf) / AUC(0-t) / Cmax / Tmax: human, plasma, intravenous",
  "method": "Blood was collected during cycle 1 in the LMP744 study on C1D1 at the end of infusion (EOI), then again at 0.25, 0.5, 1, 2, 4, and 6 h after EOI. Blood was also collected prior to infusion and at EOI on days 2–5 during cycle 1, then again at 1 week (168 h) after C1D1 EOI. Samples were collected in EDTA tubes with 2 mL of blood per sample. Samples were centrifuged and plasma was stored at − 70 °C. Samples were analyzed using a validated LC–MS or LC–MS/MS method for each IIQ as previously described. Plasma-time data were analyzed using WinNonlin (Pharsight, Mountain View, CA). AUC values were calculated by non-compartmental analysis and end-of-infusion concentrations were measured on days 1 and 5 of cycle 1. Sample collection and analysis of LMP776 pharmacokinetics were performed as previously described.",
  "note": "Like-named read-outs stand apart in the source and are kept apart here.",
  "data": [
    {"molecule": "COc1cc2c3c(n(CCCNCCO)c(=O)c2cc1OC)-c1cc2c(cc1C3=O)OCO2", "note": "[LMP744]", "values": [
      {"measurement": "Cl", "setting": "DL1, 6 mg/m2, n=1", "value": 42.3, "unit": "L/h/m2"},
      {"measurement": "Vss", "setting": "DL1, 6 mg/m2, n=1", "value": 1033.0, "unit": "L/m2"},
      {"measurement": "Cl", "setting": "DL2, 12 mg/m2, n=1", "value": 74.0, "unit": "L/h/m2"},
      {"measurement": "Vss", "setting": "DL2, 12 mg/m2, n=1", "value": 1369.0, "unit": "L/m2"},
      {"measurement": "Cl", "setting": "DL3, 24 mg/m2, n=3", "value": "77.9 (11.2) L/h/m2"},
      {"measurement": "Vss", "setting": "DL3, 24 mg/m2, n=3", "value": 1312.7, "unit": "L/m2"},
      {"measurement": "Cl", "setting": "DL4, 48 mg/m2, n=1", "value": 72.7, "unit": "L/h/m2"},
      {"measurement": "Vss", "setting": "DL4, 48 mg/m2, n=1", "value": 828.0, "unit": "L/m2"},
      {"measurement": "Cl", "setting": "DL5, 96 mg/m2, n=1", "value": 51.7, "unit": "L/h/m2"},
      {"measurement": "Vss", "setting": "DL5, 96 mg/m2, n=1", "value": 836.6, "unit": "L/m2"},
      {"measurement": "Cl", "setting": "DL6 (MTD), 190 mg/m2, n=16", "value": "59.1 (26.6) L/h/m2"},
      {"measurement": "Vss", "setting": "DL6 (MTD), 190 mg/m2, n=16", "value": 845.0, "unit": "L/m2"},
      {"measurement": "Cl", "setting": "DL7, 260 mg/m2, n=10", "value": "73.8 (35.4) L/h/m2"},
      {"measurement": "Vss", "setting": "DL7, 260 mg/m2, n=10", "value": 867.8, "unit": "L/m2"},
      {"measurement": "half-life", "setting": "6 mg/m2, DL1, 6 mg/m2, n=1, read-out: t1/2 (converted)", "value": 23.4, "unit": "h"},
      {"measurement": "half-life", "setting": "12 mg/m2, DL2, 12 mg/m2, n=1, read-out: t1/2 (converted)", "value": 19.1, "unit": "h"},
      {"measurement": "half-life", "setting": "24 mg/m2, DL3, 24 mg/m2, n=3, read-out: t1/2 (converted)", "value": 14, "unit": "h"},
      {"measurement": "half-life", "setting": "48 mg/m2, DL4, 48 mg/m2, n=1, read-out: t1/2 (converted)", "value": 15.5, "unit": "h"},
      {"measurement": "half-life", "setting": "96 mg/m2, DL5, 96 mg/m2, n=1, read-out: t1/2 (converted)", "value": 16.2, "unit": "h"},
      {"measurement": "half-life", "setting": "190 mg/m2, DL6 (MTD), 190 mg/m2, n=16, read-out: t1/2 (mean half-life) (converted)", "value": 13.6, "unit": "h"},
      {"measurement": "half-life", "setting": "190 mg/m2, MTD (DL6, 190 mg/m^2, n = 16), read-out: Half-life, range", "value": "7.2 to 23.4", "unit": "h"},
      {"measurement": "half-life", "setting": "190 mg/m^2, patient 8, Hodgkin lymphoma, read-out: Longest drug half-life measured in this study (converted)", "value": 23.4, "unit": "h"},
      {"measurement": "half-life", "setting": "260 mg/m2, DL7, 260 mg/m2, n=10, read-out: t1/2 (converted)", "value": 10.9, "unit": "h"},
      {"measurement": "AUC(0-inf)", "setting": "DL1, 6 mg/m2, n=1", "value": 142, "unit": "ng·h/mL"},
      {"measurement": "AUC(0-t)", "setting": "DL1, 6 mg/m2, n=1", "value": 91.7, "unit": "ng·h/mL"},
      {"measurement": "Cmax", "setting": "DL1, 6 mg/m2, n=1", "value": 48.4, "unit": "ng/mL"},
      {"measurement": "Tmax", "setting": "DL1, 6 mg/m2, n=1", "value": 1, "unit": "h"},
      {"measurement": "AUC(0-inf)", "setting": "DL2, 12 mg/m2, n=1", "value": 162, "unit": "ng·h/mL"},
      {"measurement": "AUC(0-t)", "setting": "DL2, 12 mg/m2, n=1", "value": 117, "unit": "ng·h/mL"},
      {"measurement": "Cmax", "setting": "DL2, 12 mg/m2, n=1", "value": 69.6, "unit": "ng/mL"},
      {"measurement": "Tmax", "setting": "DL2, 12 mg/m2, n=1", "value": 1, "unit": "h"},
      {"measurement": "AUC(0-inf)", "setting": "DL3, 24 mg/m2, n=3", "value": 313, "unit": "ng·h/mL"},
      {"measurement": "AUC(0-t)", "setting": "DL3, 24 mg/m2, n=3", "value": 234, "unit": "ng·h/mL"},
      {"measurement": "Cmax", "setting": "DL3, 24 mg/m2, n=3", "value": 78.1, "unit": "ng/mL"},
      {"measurement": "Tmax", "setting": "DL3, 24 mg/m2, n=3", "value": 1.6, "unit": "h"},
      {"measurement": "AUC(0-inf)", "setting": "DL4, 48 mg/m2, n=1", "value": 800, "unit": "ng·h/mL"},
      {"measurement": "AUC(0-t)", "setting": "DL4, 48 mg/m2, n=1", "value": 632, "unit": "ng·h/mL"},
      {"measurement": "Cmax", "setting": "DL4, 48 mg/m2, n=1", "value": 446, "unit": "ng/mL"},
      {"measurement": "Tmax", "setting": "DL4, 48 mg/m2, n=1", "value": 1, "unit": "h"},
      {"measurement": "AUC(0-inf)", "setting": "DL5, 96 mg/m2, n=1", "value": 1860, "unit": "ng·h/mL"},
      {"measurement": "AUC(0-t)", "setting": "DL5, 96 mg/m2, n=1", "value": 1390, "unit": "ng·h/mL"},
      {"measurement": "Cmax", "setting": "DL5, 96 mg/m2, n=1", "value": 433, "unit": "ng/mL"},
      {"measurement": "Tmax", "setting": "DL5, 96 mg/m2, n=1", "value": 1, "unit": "h"},
      {"measurement": "AUC(0-inf)", "setting": "DL6 (MTD), 190 mg/m2, n=16", "value": 4650, "unit": "ng·h/mL"},
      {"measurement": "AUC(0-t)", "setting": "DL6 (MTD), 190 mg/m2, n=16", "value": 3770, "unit": "ng·h/mL"},
      {"measurement": "Cmax", "setting": "DL6 (MTD), 190 mg/m2, n=16", "value": 1570, "unit": "ng/mL"},
      {"measurement": "Tmax", "setting": "DL6 (MTD), 190 mg/m2, n=16", "value": 1, "unit": "h"},
      {"measurement": "AUC(0-inf)", "setting": "DL7, 260 mg/m2, n=10", "value": 4100, "unit": "ng·h/mL"},
      {"measurement": "AUC(0-t)", "setting": "DL7, 260 mg/m2, n=10", "value": 3580, "unit": "ng·h/mL"},
      {"measurement": "Cmax", "setting": "DL7, 260 mg/m2, n=10", "value": 1500, "unit": "ng/mL"},
      {"measurement": "Tmax", "setting": "DL7, 260 mg/m2, n=10", "value": 1, "unit": "h"},
      {"measurement": "Dependence of half-life on dose", "setting": "in vivo", "value": "did not vary with dose level"},
      {"measurement": "Systemic exposure (AUC) versus dose level", "setting": "in vivo", "value": "increased linearly with dose level"}
    ]}
  ]
}
